Source: paper PMC9044501 (Journal of molecular biology, 2021)

What was measured:
[1] = target: T1, myosin in bovine cardiac synthetic thick filaments (BcSTF) (Bos taurus, UniProt Q9BE39); assay: Single mant-ATP turnover kinetics in BcSTF; format: biochemical
[2] = target: T2, bovine cardiac myofibrils (BcMF) (Bos taurus, UniProt Q9BE39); assay: Single mant-ATP turnover kinetics in BcMF; format: biochemical
[3] = target: T3, human β-cardiac 25-hep HMM (Homo sapiens, UniProt P12883); assay: Small-angle X-ray scattering; settings: at 20 μM mavacamten and 50 μM para-nitroblebbistatin
[4] = target: T3, human β-cardiac 25-hep HMM; assay: SEC-MALS-DLS light scattering of 25-hep HMM; settings: at 20 μM mavacamten and 50 μM para-nitroblebbistatin
[5] = target: T2, bovine cardiac myofibrils (BcMF); assay: Myofibrillar ATPase activity at pCa 6; format: biochemical; settings: read-out: Myofibrillar ATPase (BcMF) IC50, pCa 6, 23°C
[6] = target: T1, myosin in bovine cardiac synthetic thick filaments (BcSTF); assay: Basal myosin ATPase activity; format: biochemical; settings: read-out: Basal ATPase (BcSTF) IC50, 1 μM myosin, 23°C
myosin = assay: Blebbistatin binding to myosin in the presence of mavacamten; settings: Fig. S2

T2 sequence (Q9BE39 whole entry): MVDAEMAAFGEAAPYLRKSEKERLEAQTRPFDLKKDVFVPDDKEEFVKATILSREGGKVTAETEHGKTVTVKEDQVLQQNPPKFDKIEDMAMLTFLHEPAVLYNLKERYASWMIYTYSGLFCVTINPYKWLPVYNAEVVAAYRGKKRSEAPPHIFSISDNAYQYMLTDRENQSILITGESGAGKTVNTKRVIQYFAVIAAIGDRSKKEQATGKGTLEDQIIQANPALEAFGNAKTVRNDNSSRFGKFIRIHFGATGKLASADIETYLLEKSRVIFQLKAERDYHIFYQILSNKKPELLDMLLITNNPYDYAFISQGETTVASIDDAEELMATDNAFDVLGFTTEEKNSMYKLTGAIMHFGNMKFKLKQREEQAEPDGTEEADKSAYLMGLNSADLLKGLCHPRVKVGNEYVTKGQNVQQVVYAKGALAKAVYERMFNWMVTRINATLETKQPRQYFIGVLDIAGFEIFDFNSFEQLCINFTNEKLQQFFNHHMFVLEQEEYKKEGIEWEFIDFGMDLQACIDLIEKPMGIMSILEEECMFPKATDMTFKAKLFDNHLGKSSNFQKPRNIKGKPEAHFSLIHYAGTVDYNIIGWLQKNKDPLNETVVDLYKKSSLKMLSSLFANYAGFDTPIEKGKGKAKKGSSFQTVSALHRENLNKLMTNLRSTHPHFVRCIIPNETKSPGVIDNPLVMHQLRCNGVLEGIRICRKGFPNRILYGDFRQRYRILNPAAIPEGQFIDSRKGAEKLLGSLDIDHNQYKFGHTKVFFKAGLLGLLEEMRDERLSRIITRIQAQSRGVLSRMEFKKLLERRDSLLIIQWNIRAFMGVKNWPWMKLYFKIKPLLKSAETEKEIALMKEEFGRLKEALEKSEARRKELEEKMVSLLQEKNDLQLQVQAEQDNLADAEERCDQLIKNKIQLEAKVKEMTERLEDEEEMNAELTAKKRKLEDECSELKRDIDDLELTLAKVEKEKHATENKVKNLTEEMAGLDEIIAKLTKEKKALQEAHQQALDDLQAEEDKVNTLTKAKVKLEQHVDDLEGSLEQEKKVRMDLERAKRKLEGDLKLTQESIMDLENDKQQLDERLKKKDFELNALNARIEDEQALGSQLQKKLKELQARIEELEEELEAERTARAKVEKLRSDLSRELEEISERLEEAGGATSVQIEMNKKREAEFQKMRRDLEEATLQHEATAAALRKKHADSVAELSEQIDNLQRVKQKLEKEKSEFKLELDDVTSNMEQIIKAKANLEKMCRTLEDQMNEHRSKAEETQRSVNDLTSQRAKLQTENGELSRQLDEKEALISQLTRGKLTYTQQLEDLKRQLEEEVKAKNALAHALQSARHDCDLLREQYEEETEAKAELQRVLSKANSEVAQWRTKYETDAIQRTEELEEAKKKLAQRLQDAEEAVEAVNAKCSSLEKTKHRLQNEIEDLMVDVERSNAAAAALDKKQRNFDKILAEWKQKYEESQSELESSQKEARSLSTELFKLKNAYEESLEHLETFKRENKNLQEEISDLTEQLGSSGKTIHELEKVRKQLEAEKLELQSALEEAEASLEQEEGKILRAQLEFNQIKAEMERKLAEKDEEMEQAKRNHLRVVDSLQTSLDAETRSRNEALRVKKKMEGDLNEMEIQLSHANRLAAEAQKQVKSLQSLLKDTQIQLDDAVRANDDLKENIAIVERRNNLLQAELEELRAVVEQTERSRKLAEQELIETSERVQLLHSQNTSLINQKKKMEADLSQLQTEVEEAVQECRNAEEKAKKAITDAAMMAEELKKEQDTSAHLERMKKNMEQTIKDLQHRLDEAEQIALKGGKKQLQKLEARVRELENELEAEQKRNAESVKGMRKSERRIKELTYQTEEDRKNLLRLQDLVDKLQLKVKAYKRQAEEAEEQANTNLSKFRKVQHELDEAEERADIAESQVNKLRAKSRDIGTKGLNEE
T2 sequence (P85100 whole entry partner): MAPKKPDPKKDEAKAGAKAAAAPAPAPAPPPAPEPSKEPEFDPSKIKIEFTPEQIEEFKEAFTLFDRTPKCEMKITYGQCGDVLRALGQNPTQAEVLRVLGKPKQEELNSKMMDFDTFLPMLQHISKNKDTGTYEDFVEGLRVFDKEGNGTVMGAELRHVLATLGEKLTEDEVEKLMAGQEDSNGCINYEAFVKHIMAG
T2 sequence (Q3SZE5 whole entry partner): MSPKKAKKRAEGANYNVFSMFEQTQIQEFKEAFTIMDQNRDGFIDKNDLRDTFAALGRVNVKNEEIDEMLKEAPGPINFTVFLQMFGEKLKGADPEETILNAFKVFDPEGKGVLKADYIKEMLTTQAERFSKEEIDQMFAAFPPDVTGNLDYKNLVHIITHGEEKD
T1 sequence (Q9BE39 whole entry): as the sequence (Q9BE39 whole entry) above
T1 sequence (P85100 whole entry partner): as the sequence (P85100 whole entry partner) above
T1 sequence (Q3SZE5 whole entry partner): as the sequence (Q3SZE5 whole entry partner) above

CC(C)n1c(=O)cc(N[C@@H](C)c2ccccc2)[nH]c1=O [Mavacamten, mavacamten]
Hill coefficient ([1]; DRX to SRX shift, up to 3.125 μM): 2–4 | magnitude of myosin SRX population ([1]; saturating concentrations): ~ 100% | magnitude of myosin SRX population ([2]; saturating concentrations): ~ 65%

Cc1ccc2c(c1)C(=O)[C@]1(O)CCN(c3ccc([N+](=O)[O-])cc3)C1=N2 [Para-nitroblebbistatin, para-nitroblebbistatin]
I(0), Guinier Analysis [3]: 0.04 ± 0.01 cm⁻¹ | I(0), P(r) Analysis [3]: 0.04 ± 0 cm⁻¹ | Porod volume, P(r) Analysis [3]: 1.42e6 Å^−3 | Rg, Guinier Analysis [3]: 102.5±1.5 Å | Rg, P(r) Analysis [3]: 124±10 Å | reduction of Rg (Guinier) compared to untreated 25-hep HMM [3]: 14% | reduction of Rg (P(r) analysis) compared to untreated 25-hep HMM [3]: 11% | lifetime of mant-nucleotides for compound-bound myosin ([1]; experiment duration 2400 s): > 2400 s | IC50 ([1]; read-out: DRX ATPase Rate, kfast (BcSTF), half-maximal decrease, 0μM blebbistatin): > 12.5 µM | EC50 ([1]; read-out: SRX Amplitude, Aslow (BcSTF), half-maximal increase, 0μM blebbistatin): > 12.5 µM | Hydrodynamic radius of 25-hep HMM (DLS) [4]: 84.1±2.2 Å | Molecular Mass of 25-hep HMM (MALS) [4]: 363±14 kDa | IC50 ([2]; read-out: DRX ATPase Rate, kfast (BcMF), half-maximal decrease): > 12.5 µM | EC50 ([2]; read-out: SRX Amplitude, Aslow (BcMF), half-maximal increase): > 12.5 µM | IC50 [5]: 4.05 ± 0.34 µM | IC50 [6]: 2.37 ± 0.12 µM

Cc1ccc2c(c1)C(=O)C1(O)CCN(c3ccccc3)C1=N2 (centres unmarked) [blebbistatin]
binding of blebbistatin in the presence of mavacamten (myosin): not compromised
